≈ marks a conversion by molar mass, not a printed value. Where two headings read alike, the source gives them in different places.
Experiments:
Candida albicans 4179 = test: Broth microdilution antifungal susceptibility (MIC/MFC); assay type: cell-based; conditions: strain 4179, FLC susceptible; for MIC: 37 °C, 24 h
Description: (§1) In this study, 10 clinical Candida albicans isolates, comprising of 5 fluconazole susceptible and 5 fluconazole resistant, were used. C. albicans SC5314 was also used as a control laboratory strain. Clinical strains used in this study were stored at −80 °C supplemented with 20% glycerol in the Department of Clinical Microbiology and Infectious Diseases, University of the Witwatersrand, Johannesburg and were previously collected under the ethical clearance number M000402, obtained from the Human Research Ethics Committee, University of the Witwatersrand. For experimental purpose each strain from glycerol stock was recovered on Sabouraud Dextrose (SDA) agar plates at 37 °C for 24 h.
(§2) Minimum Inhibitory Concentration (MIC) and Minimum Fungicidal Concentrations (MFC) of all newly synthesized eugenol-tosylate congeners (ETC-1–ETC-7) against C. albicans strains were determined by broth microdilution assay in accordance with the approved guidelines described by Clinical and Laboratory Standards Institute (CLSI) guidelines M27-A[38]. The test compounds were prepared in 1% DMSO to a stock concentration of 8192 µg/ml. Two-fold dilutions of test compounds (100 µL) were prepared in 96-well flat-bottom microtiter plates, inoculated with 100 µl of inoculum (1 × 10^6 cells/mL) and incubated at 37 °C for 24 hours. In every set of experiment, positive control (fluconazole), negative vehicle control (1% DMSO) and culture control (media and cells only) were included. MIC’s were determined visibly as the lowest concentration of the test compounds that inhibited growth of test organism. To determine MFC, each well without visible growth was sub-cultured onto agar plates. Concentration in the first well with no growth on plate was taken as MFC. […] The experiment was performed in triplicate to validate the results.

Candida albicans 4324 = test: as above; assay type: cell-based; conditions: strain 4324, FLC resistant; for MIC: 37 °C, 24 h
Description: as §1, §2

Candida albicans 4175 = test: as above; assay type: cell-based
Description: as §1, §2

Candida albicans 4135 = test: as above; assay type: cell-based; conditions: strain 4135, FLC resistant; for MIC: 37 °C, 24 h
Description: as §1, §2

Candida albicans 4122 = test: as above; assay type: cell-based; conditions: strain 4122, FLC resistant; for MIC: 37 °C, 24 h
Description: as §1, §2

Candida albicans 5112 = test: as above; assay type: cell-based; conditions: strain 5112, FLC resistant; for MIC: 37 °C, 24 h
Description: as §1, §2

Candida albicans 4180 = test: as above; assay type: cell-based; conditions: strain 4180, FLC susceptible; for MIC: 37 °C, 24 h
Description: as §1, §2

Candida albicans SC5314 = test: as above; assay type: cell-based; conditions: SC5314, FLC susceptible; for MIC: 37 °C, 24 h
Description: as §1, §2

Candida albicans 4106 = test: as above; assay type: cell-based; conditions: strain 4106, FLC resistant; for MIC: 37 °C, 24 h
Description: as §1, §2

Candida albicans 4563 = test: as above; assay type: cell-based; conditions: strain 4563, FLC susceptible; for MIC: 37 °C, 24 h
Description: as §1, §2

Candida albicans 4576 = test: as above; assay type: cell-based; conditions: strain 4576, FLC susceptible; for MIC: 37 °C, 24 h
Description: as §1, §2

[1] = test system: fluconazole susceptible and resistant C. albicans strains; test: Broth microdilution antifungal susceptibility, ranges over strains; assay type: cell-based; conditions: Candida albicans
Description: as §1, §2

[2] = test system: C. albicans 4175, C. albicans 5112 and C. albicans SC5314; test: FITC annexin V/PI staining flow cytometry, ranges over three strains; assay type: cell-based, Candida albicans; conditions: 250 μmol/L, positive control
Description: (§3) To study the effect of test compounds on apoptotic markers protoplasts were prepared as described previously, with modifications. Briefly, mid-exponential phase cells were harvested and exposed to various concentrations of test compounds (0.5 × MIC, 1 × MIC and 2×MIC) for 3 h. The cells were then washed twice with protoplast buffer- I (1 M sorbitol, 50 mM tris base, 10 mM MgCl2 and 30 mM DTT) and incubated in the same buffer for 15 minutes at 25 °C, followed by centrifugation at 1500 rpm for 5 minutes. Supernatant was removed and cells were incubated with buffer- II (1 M sorbitol, 50 mM tris base, 10 mM MgCl2 and 1 mM DTT) supplemented with lyticase enzyme (≥1 µg/mL) used to digest the cell wall for 1 h at 25 °C. Buffer- II were removed by centrifugation and then cells were incubated with buffer- III (1 M sorbitol, 50 mM tris base and 10 mM MgCl2) for 20 minutes at room temperature. After the incubation cells were again centrifuged at 1500 rpm for 5 minutes and supernatant was discarded. Protoplasts then finally washed once with PBS and re-suspended in the same for further use. In each washing steps the volume of these protoplast buffers were 5 times to cell volume with pH 7.4.
This assay was used to identify early apoptosis by detecting movement of phosphatidylserine (PS) from the inner to the outer leaflet of plasma membrane. FITC annexin V Apoptosis Detection Kit I (BD Biosciences, CA, USA) was used according to the manufacturer’s instructions. Protoplasts of C. albicans cells treated with different concentrations of the test compounds, as mentioned in above section, were resuspended in 1X annexin V binding buffer ([…]) at a concentration of 1 × 10^6 cells per ml. To the 100 µl of this solution, 5 µl each of FITC annexin V and propidium iodide (PI) was added. Tubes were gently vortexed and incubated for 15 minutes at 25 °C in the dark. After incubation, 400 µl of 1X annexin V binding buffer was added to each tube and analyzed using the BD LSRFortessa Flow cytometer (Becton Dickinson, NJ, USA). The cell populations in four different quadrants of a quadrant dot plot were analyzed and interpreted as; Q1: necrosis (annexin V^−/PI^+), Q2: late apoptosis (annexin V^+/PI^+), Q3: early apoptosis (annexin V^+/PI^−) and Q4: viable cells (annexin V^−/PI^−), by using software FlowJo_V10.

[3] = test system: C. albicans 4175, C. albicans 5112 and C. albicans SC5314; test: TUNEL assay for DNA damage; assay type: cell-based, Candida albicans; conditions: 250 μmol/L, positive control
Description: as §3, with “Protoplasts then finally washed once with PBS and re-suspended in the same for further use. In each washing steps the volume of these protoplast buffers were 5 times to cell volume with pH 7.4.” left out
TUNEL assay was used to detect the DNA damage, a hallmark for late stages of apoptosis. […] Slides were examined by fluorescence microscopy using Zeiss Laser Scanning Confocal Microscope (LSM) 780 (Carl Zeiss Microscopy, Jena, Germany) with an excitation wavelength of 495 nm and emission wavelength of 519 nm. […] Images were further analyzed by using software ImageJ.

horse red blood cells = test: Cytotoxicity by haemolytic assay; assay type: cell-based
Description: The cytotoxicity of the test compounds was determined on horse red blood cells (NHLS, Johannesburg, South Africa) by testing the haemolytic activity of these compounds using the method described previously, with some modifications. Briefly, in a sterile 15 ml falcon tube 5 ml of horse blood was centrifuged at 2000 × rpm for 10 minutes. The supernatant was discarded, and the cell pellet was washed three times with chilled PBS solution. The final pellet was used to yield a 10% RBC suspension with chilled PBS. The 10% suspension were further diluted to 1:10 in PBS, then 100 µl of this suspension was added to different concentration of test compounds (0.5 × MIC, 1 × MIC and 2 × MIC) in 1.5 ml tubes. The tubes were then incubated for 60 minutes at 37 °C followed by centrifugation at 2000 × rpm for 10 minutes. From each tube, 200 µl of the supernatant was transferred to a flat-bottomed 96-well microtiter plate and absorbance was monitored at 450 nm spectrophotometrically with an iMark microplate reader (Bio-Rad laboratories, CA, USA). Triton X-100 (1%) and PBS were used as positive and negative controls respectively. The percentage of haemolysis was calculated by the following equation: %haemolysis=A450oftestcompoundtreatedsample−A450ofbuffertreatedsample/A450of1%TritonX−100treatedsample−A450ofbuffertreatedsample×100%

[4] = Candida albicans, strain 4175, FLC susceptible
[5] = Candida albicans, strain 4175, FLC susceptible, 37 °C, 24 h, read-out: MIC
[6] = over the tested C. albicans strains

Compound: C=CCc1ccc(OS(=O)(=O)c2ccccc2)c(OC)c1 [ETC-2, 2-methoxy-4-(prop-2-en-1-yl)-phenylbenzenesulfonate]
- MFC (Candida albicans 4179): 256 µg/mL (≈ 841 µM)
- MIC (Candida albicans 4179): 128 µg/mL (≈ 421 µM)
- MFC (Candida albicans 4324): 256 µg/mL (≈ 841 µM)
- MIC (Candida albicans 4324): 128 µg/mL (≈ 421 µM)
- MFC (Candida albicans 4175; [4]): 64 µg/mL (≈ 210 µM)
- MIC (Candida albicans 4175; [5]): 32 µg/mL (≈ 105 µM)
- MFC (Candida albicans 4135): 512 µg/mL (≈ 1680 µM)
- MIC (Candida albicans 4135): 128 µg/mL (≈ 421 µM)
- MFC (Candida albicans 4122): 512 µg/mL (≈ 1680 µM)
- MIC (Candida albicans 4122): 256 µg/mL (≈ 841 µM)
- MFC (Candida albicans 5112): 512 µg/mL (≈ 1680 µM)
- MIC (Candida albicans 5112): 256 µg/mL (≈ 841 µM)
- MFC (Candida albicans 4180): 256 µg/mL (≈ 841 µM)
- MIC (Candida albicans 4180): 64 µg/mL (≈ 210 µM)
- MFC (Candida albicans SC5314): 64 µg/mL (≈ 210 µM)
- MIC (Candida albicans SC5314): 32 µg/mL (≈ 105 µM)
- MFC (Candida albicans 4106): 256 µg/mL (≈ 841 µM)
- MIC (Candida albicans 4106): 64 µg/mL (≈ 210 µM)
- MFC (Candida albicans 4563): 512 µg/mL (≈ 1680 µM)
- MIC (Candida albicans 4563): 256 µg/mL (≈ 841 µM)
- MFC (Candida albicans 4576): 256 µg/mL (≈ 841 µM)
- MIC (Candida albicans 4576): 128 µg/mL (≈ 421 µM)

Compound: C=CCc1ccc(O)c(OC)c1 [EUG, 2-methoxy-4-(prop-2-en-1-yl)phenol, reference compound]
- MFC (Candida albicans 4179): 1000 µg/mL (≈ 6090 µM)
- MIC (Candida albicans 4179): 500 µg/mL (≈ 3040 µM)
- MFC (Candida albicans 4324): 1000 µg/mL (≈ 6090 µM)
- MIC (Candida albicans 4324): 500 µg/mL (≈ 3040 µM)
- MFC (Candida albicans 4175; [4]): 1000 µg/mL (≈ 6090 µM)
- MIC (Candida albicans 4175; [5]): 500 µg/mL (≈ 3040 µM)
- MFC (Candida albicans 4135): 1000 µg/mL (≈ 6090 µM)
- MIC (Candida albicans 4135): 500 µg/mL (≈ 3040 µM)
- MFC (Candida albicans 4122): 1000 µg/mL (≈ 6090 µM)
- MIC (Candida albicans 4122): 500 µg/mL (≈ 3040 µM)
- MFC (Candida albicans 5112): 1000 µg/mL (≈ 6090 µM)
- MIC (Candida albicans 5112): 500 µg/mL (≈ 3040 µM)
- MFC (Candida albicans 4180): 1000 µg/mL (≈ 6090 µM)
- MIC (Candida albicans 4180): 500 µg/mL (≈ 3040 µM)
- MFC (Candida albicans SC5314): 1000 µg/mL (≈ 6090 µM)
- MIC (Candida albicans SC5314): 500 µg/mL (≈ 3040 µM)
- MFC (Candida albicans 4106): 1000 µg/mL (≈ 6090 µM)
- MIC (Candida albicans 4106): 500 µg/mL (≈ 3040 µM)
- MFC (Candida albicans 4563): 1000 µg/mL (≈ 6090 µM)
- MIC (Candida albicans 4563): 500 µg/mL (≈ 3040 µM)
- MFC (Candida albicans 4576): 1000 µg/mL (≈ 6090 µM)
- MIC (Candida albicans 4576): 500 µg/mL (≈ 3040 µM)
- MFC [1, 6]: 1000 µg/mL (≈ 6090 µM)
- MIC [1, 6]: 500 µg/mL (≈ 3040 µM)

Compound: OC(Cn1cncn1)(Cn1cncn1)c1ccc(F)cc1F [FLC, fluconazole, reference compound]
- MIC (Candida albicans 4179): 0.25 µg/mL (≈ 0.816 µM)
- MIC (Candida albicans 4324): 16 µg/mL (≈ 52.2 µM)
- MIC (Candida albicans 4175; Candida albicans, 4175, 24 h): 0.125 µg/mL (≈ 0.408 µM)
- MIC (Candida albicans 4135): 32 µg/mL (≈ 104 µM)
- MIC (Candida albicans 4122): 32 µg/mL (≈ 104 µM)
- MIC (Candida albicans 5112): 64 µg/mL (≈ 209 µM)
- MIC (Candida albicans 4180): 0.25 µg/mL (≈ 0.816 µM)
- MIC (Candida albicans SC5314): 0.25 µg/mL (≈ 0.816 µM)
- MIC (Candida albicans 4106): 8 µg/mL (≈ 26.1 µM)
- MIC (Candida albicans 4563): 0.25 µg/mL (≈ 0.816 µM)
- MIC (Candida albicans 4576): 0.25 µg/mL (≈ 0.816 µM)
- MIC ([1]; fluconazole resistant strains, range): 8 to 64 µg/mL (≈ 26.1 to 209 µM)
- MIC ([1]; fluconazole susceptible strains, range): 0.125 to 0.25 µg/mL (≈ 0.408 to 0.816 µM)

Compound: OO [H2O2, reference compound]
- early apoptosis [2]: 32–33%
- late apoptosis [2]: 50–51%
- necrosis [2]: 6–7%
- TUNEL green fluorescence (late apoptotic cells) [3]: increased green fluorescence

Compound: Triton X-100 [reference compound]
- lysis (horse red blood cells): 100%
